From patent US10849904B2, “Methods for treatment of retinal disease by photoreceptor gene expression modulation” (University of Washington, priority 2015, dated 2020)

Assays:
Thrb (Trβ2) = experiment: Cone gene expression, Thrb (FIG. 5)
retinas of adult mice = experiment: Intravitreal injection in adult mice, qPCR and Western blot; assay type: in vivo, mouse
Excerpt: Conditional deletion of Nr2e3 in mature photoreceptors has not been reported; however, deletion of Nrl in mature photoreceptors leads to a partial “reprogramming” of the rods: the cells have reduced rod gene expression and an increase in the expression of some cone genes. Because PR1 reduces rod gene expression, including Nrl, in rods even at late stages in their development (P12), it was postulated that PR1 might have similar effects in the retinas of adult mice. To determine if PR1 affects adult photoreceptor gene expression in vivo, intravitreal injections in one eye of an adult mouse (>P21) were made and compared expression to the other eye.
(§1) RNA was isolated using TRIzol (Invitrogen) and cDNA was synthesized using the iScript cDNA synthesis kit (Bio-Rad) following an intervening DNase treatment with RQ1 RNase-free DNase (Promega). SSO Fast (Bio-Rad) was used for quantitative real-time PCR. For analysis, values were normalized to Gapdh and ΔΔCt between DMSO and compound-treated samples was expressed as percent of DMSO treated controls (100*2^ΔΔCt). Two-way Student's t-tests were performed on ΔCt values.
(§2) Retinal explants or retinas were homogenized in lysis buffer (50 mM Tris, 100 mM NaCl, 5 mM EDTA, 0.1% SDS, 1% Triton X-100, 2.5% glycerol, and 1× protease inhibitor cocktail) and equal amounts of protein samples were loaded and run in a 4-20% SDS gel (Bio-Rad). Protein was transferred to a PVDF membrane (Thermo Fisher Scientific), blocked (5% BSA and 0.1% Tween 20 in 1×PBS) and stained with primary antibodies (Supplemental Table S2) and then HRP-conjugated secondaries (Bio-Rad) diluted in blocking solution. Signals were visualized on X-ray film with SuperSignal West Dura Extended Duration Substrate (Thermo Fisher Scientific) and quantified using ImageJ software (NIH).
For intravitreal injections, adult mice (>P21) were anesthetized with isoflurane and injected with 1.5 μl of 10 mM PR1 using a 32-gauge Hamilton needle. Postnatal pups were injected intraperitoneally (IP) with 20 μl of 50 mM PR1 or 20 μl of DMSO at P2 or P3 with a 32-gauge Hamilton needle. Timed-pregnant dams were injected IP with 100 μl of 50 mM PR1 at E14 and E17 with a BD insulin syringe.

retinas from P0 mice = experiment: P0 mouse retinal explants: Western blot, qPCR, immunohistochemistry; assay type: cell-based; details: 1 μM
Experimental: Loss-of-function mutations in Nr2e3 cause an increase in the number of S-opsin+ photoreceptors and a decrease in rhodopsin expression. To determine whether PR1 has similar effects on developing photoreceptors, retinas from P0 mice were explanted in media containing DMSO or 1 μM PR1 and assessed the level of rod genes with Western blots and qPCR after two to five days in vitro (FIG. 7A). […] Expression of additional genes was tested using qPCR. After 2 days in culture PR1 decreased the expression of the rod specific genes Nrl, Nr2e3, Rho, and Gnat1 compared to DMSO (FIG. 7D).
Intact retinas without RPE from mice of various strains and ages as indicated were explanted on 0.4 μm pore tissue culture inserts (Millipore) as previously described (Ueki, Y., et al., P53 is required for the developmental restriction in Muller glial proliferation in mouse retina. Glia, 2012. 60(10): p. 1579-89; Ueki, Y., et al., A transient wave of BMP signaling in the retina is necessary for Muller glial differentiation. Development, 2015. 142(3): p. 533-43. Full media (DMEM/F12 (1:1) containing 1% dialyzed FBS, 1% Pen Strep, 0.3% D+ glucose, 2% B27, and 1% N2) changes were performed every other day and small molecules were used at 0.1 μM to 10 μM. Where indicated, EdU (Invitrogen) was included in the media at 5 μg/mL and visualized by staining with the Click-iT EdU Alexa Fluor kit (Thermo Fisher Scientific). For human retinal explant cultures, tissue from 113 day post-conception fetuses was obtained from the University of Washington Birth Defects Laboratory and explanted on 0.4 μm pore tissue culture inserts (Millipore) in media (Neurobasal A with 1% FBS, 1% Pen Strep, 1% N2, 1% B27) containing 10 μM Photoregulin1 or an equal volume of DMSO.
as §1
Retinal explants or eyecups were fixed in 4% PFA in 1×PBS for 20 minutes at room temperature and then cryoprotected in 30% sucrose in 1×PBS overnight at 4° C. Samples were embedded in OCT (Sakura Finetek), frozen on dry ice, and then sectioned at 14-16 μm on a cryostat (Leica). Slides were blocked with a solution containing 10% Normal Horse Serum (Vector Labs) and 0.5% Triton X-100 (Sigma-Aldrich) in 1×PBS for 1 hour at room temperature and then stained overnight at 4° C. with primary antibodies diluted in blocking solution. Slides were washed three times with 1×PBS the following day and then incubated in secondary antibodies (Life Technologies) diluted in blocking solution for 2 hours at room temperature, stained with DAPI (Sigma-Aldrich), washed, and coverslipped using Fluoromount-G (SouthernBiotech). An Olympus FluoView FV1000 was used for confocal microscopy.
as §2

[1] = test system: retina from Rho^P23H transgenic mice at P8; experiment: P8 Rho^P23H retinal explants, rhodopsin Western blot; assay type: cell-based, mouse; details: 2 μM, three days
Excerpt: The effect of PR1 on Rho expression in adult rods might have potential as a way to slow the degeneration of these cells in dominant forms of retinitis pigmentosa, like Rho^P23H. In this disease, the affected individuals express a mutant form of rhodopsin that is likely inappropriately processed and ultimately leads to the death of the rods. […] The majority of rod cell death in the Rho^P23H transgenic line occurs between P14 and P21. […] […] The number of nuclei were counted in the ONL of each retina in the central region 100 μm from the optic nerve head. […] Gnb1 expression was also monitored as another measure of rod photoreceptor preservation because this is not directly affected by PR1 and thus serves as a surrogate for rod number. […]
Retinal explants or retinas were homogenized in lysis buffer (50 mM Tris, 100 mM NaCl, 5 mM EDTA, 0.1% SDS, 1% Triton X-100, 2.5% glycerol, and 1× protease inhibitor cocktail) and equal amounts of protein samples were loaded and run in a 4-20% SDS gel (Bio-Rad). […] Signals were visualized on X-ray film with SuperSignal West Dura Extended Duration Substrate (Thermo Fisher Scientific) and quantified using ImageJ software (NIH).

[2] = adult mice (>P21), two intravitreal injections over four days, vs other eye
[3] = adult retinas, intravitreal injection

Cc1cc(C)cc(NC(=O)CCc2nc3sc4c(c3c(=O)[nH]2)CCCC4)c1 [PR1, N-(3,5-dimethylphenyl)-3-(4-oxo-5,6,7,8-tetrahydro-3H-[1]benzothiolo[2,3-d]pyrimidin-2-yl)propanamide]
cone gene expression, Thrb (Trβ2) (Thrb (Trβ2)): increase
Rho mRNA expression by qPCR (retinas of adult mice; [2]): decreased
rhodopsin protein by Western blot (retinas of adult mice; [2]): decreased
S opsin (retinas of adult mice; [3]): not observed
expression of the cone photoreceptor marker TRβ2 (retinas of adult mice; [3]): increased
rhodopsin protein, Western blot (retinas from P0 mice; 5 DIV, vs DMSO): less rhodopsin protein
Crx expression (retinas from P0 mice; 2 days, qPCR, vs DMSO): did not significantly decrease
Gnat1 expression (retinas from P0 mice; 2 days, qPCR, vs DMSO): decreased
Gnb1 expression (retinas from P0 mice; 2 days, qPCR, vs DMSO): did not significantly decrease
Nr2e3 expression (retinas from P0 mice; 2 days, qPCR, vs DMSO): decreased
Nrl expression (retinas from P0 mice; 2 days, qPCR, vs DMSO): decreased
Otx2 expression (retinas from P0 mice; 2 days, qPCR, vs DMSO): did not significantly decrease
Rho expression (retinas from P0 mice; 2 days, qPCR, vs DMSO): decreased
rhodopsin immunoreactivity in sections (retinas from P0 mice; immunohistochemistry): almost complete absence of rhodopsin immunoreactivity
Thrb (cone gene) expression (retinas from P0 mice; qPCR, vs DMSO): increased
level of S opsin immunoreactivity in sectioned explants (retinas from P0 mice; vs DMSO): overall increase
rhodopsin expression in the mutant rods [1]: effectively reduced rhodopsin expression
